One test has as its system A549 cell. As to the kind of experiment: Evaluation of PGE2 production inhibitory action using A549 cell (IL-1β stimulated). The test is classed as cell-based, human. Particulars: Homo sapiens. As to the method:
Experimental Example 2: Evaluation of PGE2 Production Inhibitory Action Using A549 Cell
A549 cell (Japan Health Sciences Foundation Research Resources Bank), which is cell line derived from humans lung cancer, was suspended in assay medium (Ham's F-12K (Wako, #080-08565) containing 2% FBS (Hyclone Laboratories, #SH30910.03), 100 units/mL penicillin and 100 μg/mL streptomycin (Invitrogen, #15140-122)), the suspension was added at 2.5×10^4 cells/100 μL/well to 96 well flat-bottom plate (Corning, #353072), and the plate was left standing for 20 hr in a CO2 incubator set at 37° C. The test article was serially diluted with DMSO (Nacalai Tesque, #13407-45), and then 20-fold diluted with the assay medium to prepare a test article solution having a ten-fold concentration of the final concentration. The final DMSO concentration during the reaction was set to 0.5% (v/v). The medium was removed from the plate in which the cell was added, new assay medium was added at 160 μL/well to the plate, and the plate was left standing for 10 min in a CO2 incubator. Then, the test article solution was added at 20 μL/well to the plate, and the plate was left standing for 30 min in a CO2 incubator. Next, recombinant humans IL-1β (R&D Systems, #201-LB) as a stimulant to enhance PGE2 production due to increase of mPGES-1 mRNA expression was added at 20 μL/well (the final concentration was 1 ng/mL) to the plate, and the plate was left standing for 18 hr in a CO2 incubator. The supernatant was collected at 180 μL/well, and the PGE2 concentration was measured using Prostaglandin E2 assay (CISbio Bioassays, #62P2APEC) according to the manual. As the reference standard for analytical curve, PGE2 (Cayman Chemical, #14010) was used. Using EnVision 2104 (Perkin Elmer), the time-resolved fluorescence at 620 nm and 665 nm relative to the excitation light at 337 nm was measured. PGE2 concentration was extrapolated from the PGE2 analytical curve. Average of the PGE2 concentrations of the respectively-treated wells was used as the data.
The PGE2 production inhibitory activity (%) of the test article was calculated according to the following Formula 3. PGE2 production inhibitory activity(%)=(PGE2A−PGE2X)/(PGE2A−PGE2B)×100 [Formula 3] • PGE2A: PGE2 concentration of vehicle-treated well • PGE2B: PGE2 concentration of blank well (no addition of recombinant humans IL-1B) • PGE2X: PGE2 concentration of test article-treated well

Another test concerns the target T1, human mPGES-1 (Homo sapiens, UniProt O14684).
T1 construct: made in house; host or cells: Chinese hamster ovary-derived cells (FreeStyle CHO-S), transient transfection of pcDNA3.1(+)/human mPGES-1; microsome fraction
T1 sequence (O14684 1-152): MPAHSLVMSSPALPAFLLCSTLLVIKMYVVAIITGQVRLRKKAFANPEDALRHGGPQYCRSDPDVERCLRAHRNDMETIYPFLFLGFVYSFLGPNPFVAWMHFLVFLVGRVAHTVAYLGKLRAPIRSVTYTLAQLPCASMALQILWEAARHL
The experiment in a line: Evaluation of human mPGES-1 enzyme inhibitory activity (HTRF measurement of PGE2). It counts as biochemical. As to conditions: IC50 value; microsome fraction of CHO-S cells expressing human mPGES-1, PGH2 substrate, PGE2 by HTRF; read-out: humans mPGES-1 enzyme inhibitory activity. As to the method:
Experimental Example 1: Evaluation of Human mPGES-1 Enzyme Inhibitory Activity
The human mPGES-1 enzyme inhibitory activity of a test article was evaluated according to the report of Xu et al. (XU, D et al. MF63 [2-(6-chloro-1H-phenanthro[9,10-d]imidazol-2-yl)-isophthalonitrile], a selective microsomal prostaglandin E synthase-1 inhibitor relieves pyresis and pain in preclinical models of inflammation. J Pharmacol Exp Ther. September 2008, Vol. 326, No. 3, pages 754-763). The amount of PGE2 produced by human mPGES-1 in the presence of a test article was measured by the HTRF (homogeneous time resolved fluorescence) method, and the human mPGES-1 enzyme inhibitory activity of the test article was determined.
1) Preparation of Human mPGES-1 Expressing Cell Microsome Fraction
A DNA fragment containing human mPGES-1, which is added with a BamHI recognition cleavage sequence just before the translation initiation codon and an EcoRI recognition cleavage sequence just after the translation termination codon, was amplified by the PCR (Polymerase Chain Reaction) method using a human mPGES-1 expression plasmid DNA (pME-18S/iPGES-1) prepared in-house as a template. The purified DNA fragment was digested with BamHI and EcoRI, and ligated to pcDNA3.1(+) (Invitrogen, model number V790-20), similarly_digested with BamHI and EcoRI, by using a DNA Ligation kit ver. 2.1 (Takara Bio, model number 6022). The human mPGES-1 expression plasmid DNA was isolated from Escherichia coli DH5a (TOYOBO, model number DNA-903) transformed with the obtained ligation product. The base sequence of human mPGES-1 cloned to a vector was determined by the Dye Terminator method using BigDye Terminator v3.1 Cycle Sequencing Kit (Applied Biosystems, #4337455). The determined sequence was identical with the sequence of the protein translational region of human mPGES-1 (Accession number NM 004878) registered in the NCBI Reference Database.
Human mPGES-1 expression plasmid DNA was transfected into Chinese hamster ovary-derived cells (FreeStyle CHO-S Cell, Invitrogen, #R^800-07) by using a transgene reagent (FreeStyle MAX Reagent (Invitrogen, #16447-100)), and cultured with shaking (8% CO2, 37° C.) in a medium containing 8 mmol/L L-glutamine (GIBCO FreeStyle CHO Expression Medium, Invitrogen, #12651-022) for 48 hr.
The CHO-S cells were suspended in Homogenate Buffer (100 mmol/L potassium phosphate (pH 7.4), 250 mmol/L Sucrose, 100 mmol/L EDTA, complete EDTA free (Roche, #1873580)). Using an ultrasonic disruptor UD-201 (Tomy Seiko), the suspended cells were disrupted at output:3, duty cycle:50 for 30 seconds. The precipitate was removed by centrifugation (1,000×g, 5 min, 4° C.), and the supernatant was centrifuged (5,000×g, 10 min, 4° C.). The supernatant was further centrifuged (105,000×g, 60 min, 4° C.). The obtained precipitate was suspended in Resuspension Buffer (100 mmol/L potassium phosphate (pH 7.4), 250 mmol/L sucrose, 100 mmol/L EDTA, 10% glycerol) to give a microsome fraction.
The protein concentration of the microsome fraction was measured by the Bradford method (Protein Assay Kit, Bio-Rad). The microsome fraction was rapidly frozen in liquid nitrogen and preserved at −80° C. Human mPGES-1 in the microsome fraction was detected by Western Blot using rabbit anti-mPGES-1 polyclonal antibody (ThermoFisher Scientific, #PA1-10264).
2) Evaluation of Human mPGES-1 Enzyme Inhibitory Activity
A test article solution diluted with 0.1 mol/L potassium phosphate, pH 7.4 (hereinafter to be referred to as KPB) or DMSO (Nacalai Tesque, #13407-45) was added at 5 μL/well to 96 well V-bottom plate (Corning, #3363). The final DMSO concentration during the reaction was set to 2%(v/v). Furthermore, a microsome fraction of CHO-S cells expressing human mPGES-1, which was diluted with reduced GSH (12.5 mmol/L KPB solution, SIGMA, #G6529-25G) such that the protein concentration was 5 μg/mL, was added at 20 μL/well. […]
Background: In TR-FRET formats the signal depends on donor and acceptor labels being close together.

Where [1] appears, read: A549, A549 cell, recombinant human IL-1β stimulation, read-out: cell PGE2 production inhibitory activity (IC50 value).
Where [2] appears, read: A549, 18 h, IC50 value, A549 cell, recombinant IL-1β 1 ng/mL, 18 hr, PGE2 in supernatant, read-out: cell PGE2 production inhibitory activity.

Read-outs that look alike come from different tables or passages of the source. Some results are limits rather than exact numbers.

On to `CCCCCCOc1ccc(-c2nc(O)nc(-c3cc(CNC(=O)C(C)(C)C(F)F)ccc3Cl)n2)cn1` [Example 85], for which the IC50 in the test on A549 cell (setting [1]) came to 3.5 nM; on human mPGES-1 it was 4.9 nM.

Regarding `CC[C@@H](C)Oc1ccc(-c2nc(O)nc(-c3cc(CNC(=O)C(C)(C)C(F)(F)F)ccc3Cl)n2)cn1` [Example 42], the IC50 turned out to be 7.9 nM in the test with A549 cell (setting [2]) and 1.3 nM at human mPGES-1.

`CC(C)(C)c1cc(-c2nc(O)nc(-c3cc(CNC(=O)C(C)(C)C(F)(F)F)ccc3Cl)n2)cc(C(C)(C)C)c1` [Example 20]: the figures for the IC50 in the test with A549 cell (setting [2]) and on human mPGES-1 were 150 nM and 30 nM, respectively.

Regarding `CC(C)(C(=O)NCc1ccc(Cl)c(-c2nc(O)nc(-c3ccc(OC4CC4)nc3)n2)c1)C(F)(F)F` [Example 50], the IC50 with A549 cell (setting [2]) is 170 nM; at human mPGES-1, 0.5 nM.

As to `COc1ccc(-c2nc(O)nc(-c3cc(CNC(=O)C(C)(C)C(F)(F)F)ccc3Cl)n2)cc1C(C)C` [Example 35], the IC50 with A549 cell (setting [2]) was 14 nM; on human mPGES-1, 2 nM.

For the compound `COC1(C(=O)NCc2ccc(Cl)c(-c3nc(O)nc(-c4cccc(C(C)(C)C)c4)n3)c2)CCCCC1` [Example 24], the values for the IC50 with A549 cell (setting [2]) and on human mPGES-1 were 8.2 nM and 1.6 nM, respectively.

Regarding `CCC(CC)(OC)C(=O)NCc1ccc(Cl)c(-c2nc(O)nc(-c3cccc(C(C)C)c3)n2)c1` [Example 75], the IC50 with A549 cell (setting [1]) was 32 nM; on human mPGES-1, 1.8 nM.

As for `CCC(OC)(C(=O)NCc1ccc(Cl)c(-c2nc(O)nc(-c3cccc(C4(C)CC4)c3)n2)c1)C(F)(F)F` (stereo not shown) [Example 136], the IC50 came to 10 nM with A549 cell (setting [1]) and 1.2 nM at human mPGES-1.

On to `COc1ccc(-c2nc(O)nc(-c3cc(CNC(=O)C4(OC)CCCC4)ccc3Cl)n2)cn1` [Example 34], for which the IC50 came out at 1000 nM in the test on A549 cell (setting [2]) and 1.6 nM on human mPGES-1.

Turning to `CCCOCCOc1ccc(-c2nc(O)nc(-c3cc(CNC(=O)C4(C(F)(F)F)CCCCC4)ccc3Cl)n2)cn1` [Example 69], the IC50 in the test on A549 cell (setting [1]) amounted to 8.1 nM; at human mPGES-1, 2.3 nM.

As for `CC(C)c1cc(-c2nc(O)nc(-c3cc(CNC(=O)C4(C(F)(F)F)CCCC4)ccc3Cl)n2)ccc1Cl` [Example 55], the IC50 in the test with A549 cell (setting [2]) amounted to 2.6 nM; on human mPGES-1, 1.9 nM.

As to `CCCOc1ccc(-c2nc(O)nc(-c3cc(CNC(=O)C4(C(F)(F)F)CCCCC4)ccc3Cl)n2)cn1` [Example 46], the IC50 was found to be 4.1 nM with A549 cell (setting [2]) and 3.2 nM at human mPGES-1.

Regarding `CCOC(C)(C)C(=O)NCc1ccc(Cl)c(-c2nc(O)nc(-c3cccc(C(C)C)c3)n2)c1` [Example 17], the IC50 in the test on A549 cell (setting [2]) amounted to 1300 nM; on human mPGES-1 it was 67 nM.

On to `CCC[C@H](C)Oc1ccc(-c2nc(O)nc(-c3cc(CNC(=O)C4(C(F)F)CCCCC4)ccc3Cl)n2)cn1` [Example 109], for which the IC50 in the test on A549 cell (setting [1]) was found to be 1.8 nM; on human mPGES-1 it was 3.2 nM.

Turning to `CC(C)(C)c1cc(-c2nc(O)nc(-c3cc(CNC(=O)C(C)(C)C(F)(F)F)ccc3Cl)n2)ccc1F` [Example 67], the IC50 in the test on A549 cell (setting [1]) turned out to be 3.9 nM; on human mPGES-1, 2.8 nM.

Turning to `CCOc1ccc(-c2nc(O)nc(-c3cc(CNC(=O)C4(OC)CCCCC4)ccc3Cl)n2)cn1` [Example 31], the IC50 in the test on A549 cell (setting [2]) was 86 nM; on human mPGES-1, 1 nM.

`CCCOc1ccc(-c2nc(O)nc(-c3cc(CNC(=O)C(C)(C)C(F)(F)F)ccc3Cl)n2)cn1` [Example 2]: the results for the IC50 in the test on A549 cell (setting [2]) and at human mPGES-1 were 8.6 nM and 1.1 nM, respectively.

For `CC(C)(C)c1cccc(-c2nc(O)nc(-c3cc(CNC(=O)C4(C(F)F)CCCCCC4)ccc3Cl)n2)c1` [Example 121], the IC50 worked out at 7.9 nM in the test on A549 cell (setting [1]) and 3.3 nM on human mPGES-1.

As for `COCC(C)(C)C(=O)NCc1ccc(Cl)c(-c2nc(O)nc(-c3cccc(C(C)C)c3)n2)c1` [Example 12], the IC50 in the test on A549 cell (setting [2]) was 350 nM; at human mPGES-1 it was 3.2 nM.

As for `CCCCCOc1ccc(-c2nc(O)nc(-c3cc(CNC(=O)C(C)(C)C(F)(F)F)ccc3Cl)n2)cn1` [Example 21], the values for the IC50 in the test on A549 cell (setting [2]) and at human mPGES-1 were 2.2 nM and 3.9 nM, respectively.

Take `CCCCCCOc1ccc(-c2nc(O)nc(-c3cc(CNC(=O)C(C)(C)C(F)(F)F)ccc3Cl)n2)cn1` [Example 23]: the results for the IC50 with A549 cell (setting [2]) and on human mPGES-1 were 2.4 nM and 7.2 nM, respectively.

With `CCC[C@@H](C)Oc1ccc(-c2nc(O)nc(-c3cc(CNC(=O)C(CC)(OC)C(F)(F)F)ccc3Cl)n2)cn1` (single isomer, unassigned) [Example 142], the results for the IC50 with A549 cell (setting [1]) and at human mPGES-1 were 2.1 nM and 7.7 nM, respectively.

In the case of `Cc1cc(-c2nc(O)nc(-c3cc(CNC(=O)C(C)(C)C(F)(F)F)ccc3Cl)n2)cc(C(C)(C)C)c1` [Example 11], the IC50 in the test on A549 cell (setting [2]) was found to be 17 nM; at human mPGES-1, 0.2 nM.

For the compound `CC(C)c1cccc(-c2nc(O)nc(-c3cc(CNC(=O)C4(C(F)F)CCCCCC4)ccc3Cl)n2)c1` [Example 120], the results for the IC50 with A549 cell (setting [1]) and on human mPGES-1 were over 30 nM and 1.8 nM, respectively. Further, the inhibition at 0.03 µM with A549 cell (A549 cell, IL-1β stimulation, at the highest concentration given (0.03 μM), read-out: cell PGE2 production inhibitory activity (%), printed in parentheses after the > bound) turned out to be 43%.

(Values after patent publication US12492182B2, “Hydroxytriazine compounds and pharmaceutical use thereof” (Japan Tobacco Inc., priority 2015, dated 2025).)
